Experimental findings from patent US10294207B2, “Pyrazole derivatives as TNIK, IKKϵ and TBK1 inhibitor and pharmaceutical composition comprising same” (GREEN CROSS CORPORATION, priority 2015, dated 2019) are described below.

In one experiment the target is T1, IKKε (Homo sapiens, UniProt Q14164).
T1 construct: purchased Invitrogen PR8031B
T1 sequence (Q14164 1-716): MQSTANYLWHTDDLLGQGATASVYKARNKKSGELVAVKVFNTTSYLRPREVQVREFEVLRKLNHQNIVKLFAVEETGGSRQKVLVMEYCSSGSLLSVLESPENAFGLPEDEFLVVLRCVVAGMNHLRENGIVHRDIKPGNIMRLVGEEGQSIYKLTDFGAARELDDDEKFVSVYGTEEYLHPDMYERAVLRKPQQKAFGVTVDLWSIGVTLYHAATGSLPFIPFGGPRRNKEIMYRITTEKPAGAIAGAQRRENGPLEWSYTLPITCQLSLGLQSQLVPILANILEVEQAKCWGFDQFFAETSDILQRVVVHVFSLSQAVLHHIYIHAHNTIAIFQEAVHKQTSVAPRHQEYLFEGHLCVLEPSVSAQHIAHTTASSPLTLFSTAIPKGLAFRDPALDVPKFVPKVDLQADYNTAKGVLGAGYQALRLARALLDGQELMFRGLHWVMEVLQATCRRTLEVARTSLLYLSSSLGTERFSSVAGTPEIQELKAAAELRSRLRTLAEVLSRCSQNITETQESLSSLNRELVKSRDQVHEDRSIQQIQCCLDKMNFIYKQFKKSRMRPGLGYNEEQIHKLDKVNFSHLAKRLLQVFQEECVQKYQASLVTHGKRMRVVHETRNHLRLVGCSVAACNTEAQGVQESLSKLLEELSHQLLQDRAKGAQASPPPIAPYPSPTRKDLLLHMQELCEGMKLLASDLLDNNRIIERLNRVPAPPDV
Nature of the experiment: IKKε inhibition, ADP-Glo Kinase Assay. It counts as biochemical. The conditions noted are these: luminometer. The method, boiled down: (§1)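 Each recombinant kinase enzyme system was run per the manufacturer's protocol in 40 mM Tris pH 7.5, 20 mM MgCl2 and 0.1 mg/mL BSA. Kinase activity was detected as ADP formation by ADP-Glo luminescence.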
In general terms: ADP-Glo first removes unused ATP, then detects ADP through luciferase.

For a further experiment, the target named is T2, TBK1 (Homo sapiens, UniProt Q9UHD2).
T2 construct: purchased Promega V3991
T2 sequence (Q9UHD2 1-729): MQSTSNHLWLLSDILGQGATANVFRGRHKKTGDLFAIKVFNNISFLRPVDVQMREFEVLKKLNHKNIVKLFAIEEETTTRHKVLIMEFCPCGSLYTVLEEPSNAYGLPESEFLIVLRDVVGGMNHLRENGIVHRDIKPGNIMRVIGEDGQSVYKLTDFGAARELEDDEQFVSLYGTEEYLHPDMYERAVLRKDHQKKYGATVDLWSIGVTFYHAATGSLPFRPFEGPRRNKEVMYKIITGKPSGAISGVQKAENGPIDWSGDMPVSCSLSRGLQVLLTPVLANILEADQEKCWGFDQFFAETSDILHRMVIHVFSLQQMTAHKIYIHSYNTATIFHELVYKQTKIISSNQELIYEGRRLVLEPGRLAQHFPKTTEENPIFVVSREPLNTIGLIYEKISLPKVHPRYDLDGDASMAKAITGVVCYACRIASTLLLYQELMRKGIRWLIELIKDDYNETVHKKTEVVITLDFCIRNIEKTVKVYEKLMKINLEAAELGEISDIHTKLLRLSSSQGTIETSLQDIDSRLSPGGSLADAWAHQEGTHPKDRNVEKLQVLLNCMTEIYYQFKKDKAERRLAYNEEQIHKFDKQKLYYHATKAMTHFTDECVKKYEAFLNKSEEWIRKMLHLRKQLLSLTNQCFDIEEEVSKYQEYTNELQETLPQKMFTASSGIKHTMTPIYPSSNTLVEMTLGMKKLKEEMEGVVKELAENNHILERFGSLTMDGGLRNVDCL
Nature of the experiment: TBK1 inhibition, ADP-Glo Kinase Assay. The conditions noted are these: luminometer. The experiment is classed as biochemical. The method, boiled down:
as §1

For the compound `CCC(NC(=O)c1ccc2[nH]nc(NC(=O)c3ccc(N4CC(C)NC(C)C4)cc3)c2c1)c1cccs1` (stereo not drawn) [Example 95, 3-(4-(3,5-dimethylpiperazin-1-yl)benzamido)-N-(1-(thiophen-2-yl)propyl)-1H-indazole-5-carboxamide 2,2,2-trifluoroacetate], the IC50 (as a rule, the midpoint of a concentration-inhibition curve) on IKKε is 0.021 µM; against TBK1, 0.0028 µM.
For the compound `CCC(NCc1ccc2[nH]nc(NC(=O)c3ccc(F)cc3)c2c1)c1cccs1` (stereo not drawn) [Example 32], the IC50 against IKKε and on TBK1 was above 10 µM throughout.
As for `CC(NC(=O)c1ccc2[nH]nc(NC(=O)c3ccc(N4CCN(C)CC4)cc3)c2c1)c1ccsc1` (stereo not drawn) [Example 80, 3-(4-(4-Methylpiperazin-1-yl)benzamido)-N-(1-(thiophen-3-yl)ethyl)-1H-indazole-5-carboxamide], the figures for the IC50 against IKKε and against TBK1 were 0.0074 µM and 0.0025 µM, respectively.
For `CN1CCN(c2ccc(C(=O)Nc3n[nH]c4ccc(C(=O)NCc5ncon5)cc34)cc2)CC1` [Example 118], the values for the IC50 against IKKε and at TBK1 were 1.96 µM and 0.3 µM, respectively.
For `CN1CCN(c2ccc(C(=O)Nc3n[nH]c4ccc(C(=O)NCc5nccs5)cc34)cc2)CC1` [Example 103, 3-(4-(4-Methylpiperazin-1-yl)benzamido)-N-(thiazol-2-ylmethyl)-1H-indazole-5-carboxamide 2,2,2-trifluoroacetate], the IC50 against IKKε worked out at 0.44 µM; against TBK1, 0.02 µM.
As to `O=C(NCc1ccccn1)c1ccc2[nH]nc(NC(=O)c3ccc(N4CCOCC4)cc3)c2c1` [Example 86, 3-(4-Morpholinobenzamido)-N-(pyridin-2-ylmethyl)-1H-indazole-5-carboxamide], the values for the IC50 against IKKε and on TBK1 were 0.45 µM and 0.089 µM, respectively.
`CC1CN(c2ccc(C(=O)Nc3n[nH]c4ccc(C(=O)NCc5cccs5)cc34)cc2)CC(C)O1` (stereo not drawn) [Example 92, 3-(4-(2,6-Dimethylmorpholino)benzamido)-N-(thiophen-2-ylmethyl)-1H-indazole-5-carboxamide 2,2,2-trifluoroacetate]: the IC50 at IKKε is 0.065 µM; against TBK1, 0.007 µM.
Consider `Cc1cc(C(=O)Nc2n[nH]c3ccc(C(=O)NCc4cccs4)cc23)ccc1N1CCOCC1` [Example 78, 3-(3-Methyl-4-morpholinobenzamido)-N-(thiophen-2-ylmethyl)-1H-indazole-5-carboxamide], for which the IC50 at IKKε stood at 0.2 µM; at TBK1, 0.037 µM.
Turning to `CN1CCN(c2ccc(C(=O)Nc3n[nH]c4ccc(C(=O)NCc5ccncc5)cc34)cc2)CC1` [Example 121, 3-(4-(4-Methylpiperazin-1-yl)benzamido)-N-(pyridin-4-ylmethyl)-1H-indazole-5-carboxamide], the values for the IC50 against IKKε and on TBK1 were 0.11 µM and 0.0063 µM, respectively.
With `CN1CCN(c2ccc(C(=O)Nc3n[nH]c4ccc(C(=O)NCc5ccsc5)cc34)cc2)CC1` [Example 47, 3-(4-(4-Methylpiperazin-1-yl)benzamido)-N-(thiophen-3-ylmethyl)-1H-indazole-5-carboxamide], the IC50 at IKKε was found to be 0.014 µM; against TBK1, 0.0014 µM.
With `CN1CCN(c2ccc(C(=O)Nc3n[nH]c4ccc(C(=O)NC(CO)c5cccs5)cc34)cc2)CC1` (stereo not drawn) [Example 45, N-(2-Hydroxy-1-(thiophen-2-yl)ethyl)-3-(4-(4-methylpiperazin-1-yl)benzamido)-1H-indazole-5-carboxamide], the IC50 against IKKε came out at 0.014 µM; against TBK1 it was 0.0021 µM.
In the case of `O=C(NCc1ccc(C(F)(F)F)nc1)c1ccc2[nH]nc(NC(=O)c3ccc(N4CCOCC4)cc3)c2c1` [Example 71, 3-(4-Morpholinobenzamido)-N-((6-(trifluoromethyl)pyridin-3-yl)methyl)-1H-indazole-5-carboxamide], the IC50 at IKKε was above 10 µM; against TBK1, 0.44 µM.
In the case of `O=C(NCc1ccsc1)c1ccc2[nH]nc(NC(=O)c3ccc(N4CCOCC4)cc3)c2c1` [Example 46, 3-(4-Morpholinobenzamido)-N-(thiophen-3-ylmethyl)-1H-indazole-5-carboxamide], the IC50 on IKKε is 0.022 µM; on TBK1, 0.0015 µM.
Regarding `O=C(NCc1ccco1)c1ccc2[nH]nc(NC(=O)c3ccc(N4CCOCC4)cc3)c2c1` [Example 50, N-(Furan-2-ylmethyl)-3-(4-morpholinobenzamido)-1H-indazole-5-carboxamide], the IC50 at IKKε worked out at 0.037 µM; on TBK1 it was 0.0058 µM.
As to `CCC(NC(=O)c1ccc2[nH]nc(NC(=O)c3ccc(N4CCNCC4)cc3)c2c1)c1cccs1` (stereo not drawn) [Example 102, 3-(4-(Piperazin-1-yl)benzamido)-N-(1-(thiophen-2-yl)propyl)-1H-indazole-5-carboxamide], the IC50 on IKKε turned out to be 0.025 µM; against TBK1 it was 0.0058 µM.
Regarding `CC(C)CC(NC(=O)c1ccc2[nH]nc(NC(=O)c3ccc(N4CCOCC4)cc3)c2c1)c1cccs1` (stereo not drawn) [Example 130, N-(3-Methyl-1-(thiophen-2-yl)butyl)-3-(4-morpholinobenzamido)-1H-indazole-5-carboxamide], the IC50 at IKKε came to 0.9 µM; on TBK1, 0.11 µM.
In the case of `O=C(NCc1cccs1)c1ccc2[nH]nc(NC(=O)c3ccc(NCCN4CCOCC4)cc3)c2c1` [Example 153, 3-(4-((2-morpholinoethyl)amino)benzamido)-N-(thiophen-2-ylmethyl)-1H-indazole-5-carboxamide], the results for the half-inhibitory concentration (IC50) against IKKε and against TBK1 were 0.037 µM and 0.0037 µM, respectively.
In the case of `CN1CCN(c2ccc(C(=O)Nc3n[nH]c4ccc(C(=O)NCC5CCC5)cc34)cc2)CC1` [Example 106, N-(Cyclobutylmethyl)-3-(4-(4-methylpiperazin-1-yl)benzamido)-1H-indazole-5-carboxamide], the results for the IC50 against IKKε and at TBK1 were 0.15 µM and 0.023 µM, respectively.
As to `CCC(NC(=O)c1ccc2[nH]nc(NC(=O)c3ccc(N4CCN[C@@H](C)C4)cc3)c2c1)c1cccs1` (stereo partly drawn) [Example 97, 3-(4-((S)-3-Methylpiperazin-1-yl)benzamido)-N-(1-(thiophen-2-yl)propyl)-1H-indazole-5-carboxamide 2,2,2-trifluoroacetate], the IC50 was 0.016 µM against IKKε and 0.0028 µM at TBK1.
As to `CN1CCN(c2ccc(C(=O)Nc3n[nH]c4ccc(C(=O)NC5(c6cccs6)CCCCC5)cc34)cc2)CC1` [Example 147, 3-(4-(4-Methylpiperazin-1-yl)benzamido)-N-(1-(thiophen-2-yl)cyclohexyl)-1H-indazole-5-carboxamide], the IC50 on IKKε was 0.34 µM; on TBK1, 0.11 µM.
Regarding `CC(CCO)NC(=O)c1ccc2[nH]nc(NC(=O)c3ccc(N4CCN(C)CC4)cc3)c2c1` (stereo not drawn) [Example 93, N-(4-Hydroxybutan-2-yl)-3-(4-(4-methylpiperazin-1-yl)benzamido)-1H-indazole-5-carboxamide], the IC50 on IKKε was 1.04 µM; at TBK1 it was 0.19 µM.
The corresponding values for `CN1CCN(c2ccc(C(=O)Nc3n[nH]c4ccc(C(=O)NC(C)(C)c5ccccc5)cc34)cc2)CC1` [Example 63, 3-(4-(4-Methylpiperazin-1-yl)benzamido)-N-(2-phenylpropan-2-yl)-1H-indazole-5-carboxamide] are 0.036 µM and 0.0094 µM.
`CCC(C)(NC(=O)c1ccc2[nH]nc(NC(=O)c3ccc(F)cc3)c2c1)c1cccs1` (stereo not drawn) [Example 34, 3-(4-Fluorobenzamido)-N-(2-(thiophen-2-yl)butan-2-yl)-1H-indazole-5-carboxamide]: the concentration for half-maximal inhibition (IC50) was 1.74 µM against IKKε and 0.58 µM on TBK1.
Regarding `CCC(NC(=O)c1ccc2[nH]nc(NC(=O)c3ccc(N4C[C@@H](C)N[C@@H](C)C4)cc3)c2c1)c1cccs1` (stereo partly drawn) [Example 99, 3-(4-((3R,5S)-3,5-Dimethylpiperazin-1-yl)benzamido)-N-(1-(thiophen-2-yl)propyl)-1H-indazole-5-carboxamide 2,2,2-trifluoroacetate], the IC50 against IKKε amounted to 0.014 µM; on TBK1, 0.0027 µM.
